In the OPERA property sets (Mansouri et al. 2018):
In brackets after ≈: the same amount, converted by molar mass.

Conditions: 20 °C

SMILES	solubility
CCCCC(CC)CN (stereo not drawn)	19.3 mM (≈ 2500 µg/mL)
CCCC(=O)OCC	47.3 mM (≈ 5500 µg/mL)
CCCCS	6.62 mM (≈ 597 µg/mL)
CCCCOC(=O)CCCCCCCCC(=O)OCCCC	0.127 mM (≈ 40 µg/mL)
C=C(C)C(=O)O	1030 mM (≈ 89000 µg/mL)
CC(=O)OC(C)CC(C)C (stereo not drawn)	9.01 mM (≈ 1300 µg/mL)
CCCCCOC(C)=O	13.2 mM (≈ 1710 µg/mL)
C=COC(C)=O	232 mM (≈ 20000 µg/mL)
CCCCCCCCC(=O)O	1.79 mM (≈ 284 µg/mL)
COC(=O)c1ccccc1	15.4 mM (≈ 2100 µg/mL)
CCCCC(CC)CCl (stereo not drawn)	0.673 mM (≈ 100 µg/mL)
CCOC(=O)CC(C)C	18.5 mM (≈ 2410 µg/mL)
C=COCCCC	30 mM (≈ 3000 µg/mL)

Same assay, conditions: 25 °C

SMILES	solubility
CCCCOC(=O)/C=C\C(=O)OCCCC	2.19 mM (≈ 500 µg/mL)
CCC[N+](=O)[O-]	168 mM (≈ 15000 µg/mL)
FC(Cl)(Cl)C(F)(Cl)Cl	0.617 mM (≈ 126 µg/mL)
CC(=O)OCC(COC(C)=O)OC(C)=O	266 mM (≈ 58000 µg/mL)
CCCCCl	11.9 mM (≈ 1100 µg/mL)
CCCCOCCCC	2.3 mM (≈ 300 µg/mL)
CCC(C)C	0.676 mM (≈ 48.8 µg/mL)
CC1CCCO1 (stereo not drawn)	1810 mM (≈ 156000 µg/mL)
CCCOCCC	48 mM (≈ 4900 µg/mL)
FC(F)(Cl)C(F)(F)Cl	0.761 mM (≈ 130 µg/mL)
CC(C)CC(C)O (stereo not drawn)	161 mM (≈ 16400 µg/mL)
CC(C)CCOCCC(C)C	1.26 mM (≈ 200 µg/mL)
C=CC(=O)OC	574 mM (≈ 49400 µg/mL)
CCOCC	815 mM (≈ 60400 µg/mL)
C[Si](C)(C)C	0.222 mM (≈ 19.6 µg/mL)
FC(F)(F)Cl	0.862 mM (≈ 90 µg/mL)
CCCCCC(C)=O	37.7 mM (≈ 4300 µg/mL)
CCCC(C)C	0.172 mM (≈ 14.8 µg/mL)
CCCCCCCCC	0.00172 mM (≈ 0.22 µg/mL)
CC[Si](CC)(CC)CC	0.00225 mM (≈ 0.325 µg/mL)
CCCCC	0.527 mM (≈ 38 µg/mL)
N#Cc1ccccc1	19.4 mM (≈ 2000 µg/mL)
COC(=O)/C=C\C(=O)OC	555 mM (≈ 80000 µg/mL)

Same assay, conditions: 30 °C

SMILES	solubility
Cc1ccc(Cl)c(Cl)c1	0.161 mM (≈ 26 µg/mL)
CCOC(=O)/C=C\C(=O)OCC	81.3 mM (≈ 14000 µg/mL)
